Measured values: PubChem BioAssay AID2060889 (Molecular Pharmacology Branch, DTP, NCI, 2025)

Test system: LG0567-F671-PDC complex spheroids viability
Assay: Anticancer human tumor LG0567-F671-PDC patient-derived lung adenocarcinoma cell line growth inhibition [RAS]
Settings: for IC50: curve of first compound; for viability, T/C: stronger effect = lower value
In short: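 Multi-cell-type spheroids: tumor cells plus HUVEC endothelial cells and mesenchymal stem cells. RAS-pathway inhibitors were combined with targeted agents, each dosed in half-log steps down from clinical Cmax, or from 10 microM when Cmax was unknown.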
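Also: spheroids exposed to compound for seven days before readout.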
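For IC50 in this document: luminescence signal used as a proxy for viable cells.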

SMILES: Nc1ccn(C2OC(CO)C(O)C2(F)F)c(=O)n1 (configuration not stated) + C=CC(=O)N1CCN(c2nc(OCC3CCCN3C)nc3c(F)c(-c4nc(N)cc(C)c4C(F)(F)F)c(Cl)cc23)C(C)C1
- IC50 (second compound 0.00316 µM): < 3.16 nM
- IC50 (second compound 0.01 µM): < 3.16 nM
- IC50 (second compound 0.0316 µM): < 3.16 nM
- IC50 (second compound 0.1 µM): < 3.16 nM
- IC50 (second compound 0.316 µM): < 3.16 nM
- IC50 (second compound 1 µM): < 3.16 nM
- viability, T/C (second compound 0.00316 µM, first compound 0.00316 µM): 18.4%
- viability, T/C (second compound 0.00316 µM, first compound 0.01 µM): 16.4%
- viability, T/C (second compound 0.00316 µM, first compound 0.0316 µM): 14.8%
- viability, T/C (second compound 0.00316 µM, first compound 0.1 µM): 16.6%
- viability, T/C (second compound 0.00316 µM, first compound 0.316 µM): 15.9%
- viability, T/C (second compound 0.00316 µM, first compound 1 µM): 15.8%
- viability, T/C (second compound 0.01 µM, first compound 0.00316 µM): 16.5%
- viability, T/C (second compound 0.01 µM, first compound 0.01 µM): 13.8%
- viability, T/C (second compound 0.01 µM, first compound 0.0316 µM): 13.9%
- viability, T/C (second compound 0.01 µM, first compound 0.1 µM): 14.3%
- viability, T/C (second compound 0.01 µM, first compound 0.316 µM): 14.3%
- viability, T/C (second compound 0.01 µM, first compound 1 µM): 14.9%
- viability, T/C (second compound 0.0316 µM, first compound 0.00316 µM): 15%
- viability, T/C (second compound 0.0316 µM, first compound 0.01 µM): 14.2%
- viability, T/C (second compound 0.0316 µM, first compound 0.0316 µM): 12.5%
- viability, T/C (second compound 0.0316 µM, first compound 0.1 µM): 14.5%
- viability, T/C (second compound 0.0316 µM, first compound 0.316 µM): 15.3%
- viability, T/C (second compound 0.0316 µM, first compound 1 µM): 12.8%
- viability, T/C (second compound 0.1 µM, first compound 0.00316 µM): 14.2%
- viability, T/C (second compound 0.1 µM, first compound 0.01 µM): 13.2%
- viability, T/C (second compound 0.1 µM, first compound 0.0316 µM): 14.2%
- viability, T/C (second compound 0.1 µM, first compound 0.1 µM): 11.5%
- viability, T/C (second compound 0.1 µM, first compound 0.316 µM): 12.9%
- viability, T/C (second compound 0.1 µM, first compound 1 µM): 14%
- viability, T/C (second compound 0.316 µM, first compound 0.00316 µM): 13.4%
- viability, T/C (second compound 0.316 µM, first compound 0.01 µM): 13.8%
- viability, T/C (second compound 0.316 µM, first compound 0.0316 µM): 11.6%
- viability, T/C (second compound 0.316 µM, first compound 0.1 µM): 12.6%
- viability, T/C (second compound 0.316 µM, first compound 0.316 µM): 14.7%
- viability, T/C (second compound 0.316 µM, first compound 1 µM): 11.6%
- viability, T/C (second compound 1 µM, first compound 0.00316 µM): 14.1%
- viability, T/C (second compound 1 µM, first compound 0.01 µM): 16.4%
- viability, T/C (second compound 1 µM, first compound 0.0316 µM): 14.7%
- viability, T/C (second compound 1 µM, first compound 0.1 µM): 13.7%
- viability, T/C (second compound 1 µM, first compound 0.316 µM): 14.2%
- viability, T/C (second compound 1 µM, first compound 1 µM): 14.3%
